What was measured:
[1] = target: PI3K-gamma (Homo sapiens, UniProt P48736); assay: PI3K-gamma fluorescence polarization assay; conditions: read-out: IC50 PI3Kγ
[2] = target: PI3K-alpha (Homo sapiens, UniProt P42336); assay: PI3K-alpha fluorescence polarization assay; conditions: read-out: IC50 PI3Kα
Chain of PI3K-alpha (P42336 whole entry, species assumed): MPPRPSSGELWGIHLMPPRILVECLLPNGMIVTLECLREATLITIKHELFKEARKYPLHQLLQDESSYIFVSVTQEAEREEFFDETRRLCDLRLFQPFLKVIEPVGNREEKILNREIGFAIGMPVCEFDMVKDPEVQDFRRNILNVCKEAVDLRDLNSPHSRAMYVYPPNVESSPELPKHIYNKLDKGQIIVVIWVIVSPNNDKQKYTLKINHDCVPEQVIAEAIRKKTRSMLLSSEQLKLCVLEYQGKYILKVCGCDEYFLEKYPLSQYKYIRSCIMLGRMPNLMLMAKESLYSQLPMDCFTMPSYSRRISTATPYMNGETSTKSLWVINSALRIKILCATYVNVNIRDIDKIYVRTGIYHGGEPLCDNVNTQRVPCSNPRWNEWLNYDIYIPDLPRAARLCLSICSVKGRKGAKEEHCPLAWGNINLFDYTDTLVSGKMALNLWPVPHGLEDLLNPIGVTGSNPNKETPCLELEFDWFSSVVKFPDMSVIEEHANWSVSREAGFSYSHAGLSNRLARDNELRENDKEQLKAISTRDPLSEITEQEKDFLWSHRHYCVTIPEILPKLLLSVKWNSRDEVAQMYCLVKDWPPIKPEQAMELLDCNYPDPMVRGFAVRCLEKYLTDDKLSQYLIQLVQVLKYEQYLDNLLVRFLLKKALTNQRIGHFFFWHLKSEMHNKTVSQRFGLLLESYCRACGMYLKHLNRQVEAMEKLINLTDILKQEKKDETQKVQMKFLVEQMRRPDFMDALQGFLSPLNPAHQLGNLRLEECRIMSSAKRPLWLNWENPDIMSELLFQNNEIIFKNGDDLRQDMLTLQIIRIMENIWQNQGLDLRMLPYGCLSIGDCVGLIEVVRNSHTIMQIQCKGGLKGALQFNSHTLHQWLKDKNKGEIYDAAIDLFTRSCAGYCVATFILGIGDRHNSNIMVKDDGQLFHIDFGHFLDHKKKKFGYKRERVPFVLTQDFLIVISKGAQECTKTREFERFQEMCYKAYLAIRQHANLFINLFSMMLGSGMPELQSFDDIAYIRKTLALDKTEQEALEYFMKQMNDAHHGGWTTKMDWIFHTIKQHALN
Chain of PI3K-alpha (P27986 whole entry partner, species assumed): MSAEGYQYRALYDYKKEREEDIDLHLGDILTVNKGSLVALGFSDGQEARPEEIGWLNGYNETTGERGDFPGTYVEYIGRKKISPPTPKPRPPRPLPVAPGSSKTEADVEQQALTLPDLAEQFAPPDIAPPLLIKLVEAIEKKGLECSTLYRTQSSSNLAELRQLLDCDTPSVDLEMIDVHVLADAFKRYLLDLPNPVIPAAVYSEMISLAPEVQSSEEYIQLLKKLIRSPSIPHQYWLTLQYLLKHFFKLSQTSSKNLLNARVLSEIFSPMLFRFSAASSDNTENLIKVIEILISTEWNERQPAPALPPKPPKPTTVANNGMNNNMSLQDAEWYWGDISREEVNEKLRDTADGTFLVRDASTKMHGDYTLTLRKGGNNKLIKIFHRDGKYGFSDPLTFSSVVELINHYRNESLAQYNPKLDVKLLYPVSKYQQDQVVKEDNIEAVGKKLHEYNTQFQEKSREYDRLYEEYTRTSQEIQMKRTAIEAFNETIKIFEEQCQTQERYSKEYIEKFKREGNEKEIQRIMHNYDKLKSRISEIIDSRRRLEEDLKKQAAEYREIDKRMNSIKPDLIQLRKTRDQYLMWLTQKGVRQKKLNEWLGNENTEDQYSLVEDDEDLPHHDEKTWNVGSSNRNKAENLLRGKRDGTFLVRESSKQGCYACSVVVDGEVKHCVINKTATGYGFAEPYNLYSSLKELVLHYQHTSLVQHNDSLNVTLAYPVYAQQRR

Chain of PI3K-gamma (P48736 whole entry, species assumed): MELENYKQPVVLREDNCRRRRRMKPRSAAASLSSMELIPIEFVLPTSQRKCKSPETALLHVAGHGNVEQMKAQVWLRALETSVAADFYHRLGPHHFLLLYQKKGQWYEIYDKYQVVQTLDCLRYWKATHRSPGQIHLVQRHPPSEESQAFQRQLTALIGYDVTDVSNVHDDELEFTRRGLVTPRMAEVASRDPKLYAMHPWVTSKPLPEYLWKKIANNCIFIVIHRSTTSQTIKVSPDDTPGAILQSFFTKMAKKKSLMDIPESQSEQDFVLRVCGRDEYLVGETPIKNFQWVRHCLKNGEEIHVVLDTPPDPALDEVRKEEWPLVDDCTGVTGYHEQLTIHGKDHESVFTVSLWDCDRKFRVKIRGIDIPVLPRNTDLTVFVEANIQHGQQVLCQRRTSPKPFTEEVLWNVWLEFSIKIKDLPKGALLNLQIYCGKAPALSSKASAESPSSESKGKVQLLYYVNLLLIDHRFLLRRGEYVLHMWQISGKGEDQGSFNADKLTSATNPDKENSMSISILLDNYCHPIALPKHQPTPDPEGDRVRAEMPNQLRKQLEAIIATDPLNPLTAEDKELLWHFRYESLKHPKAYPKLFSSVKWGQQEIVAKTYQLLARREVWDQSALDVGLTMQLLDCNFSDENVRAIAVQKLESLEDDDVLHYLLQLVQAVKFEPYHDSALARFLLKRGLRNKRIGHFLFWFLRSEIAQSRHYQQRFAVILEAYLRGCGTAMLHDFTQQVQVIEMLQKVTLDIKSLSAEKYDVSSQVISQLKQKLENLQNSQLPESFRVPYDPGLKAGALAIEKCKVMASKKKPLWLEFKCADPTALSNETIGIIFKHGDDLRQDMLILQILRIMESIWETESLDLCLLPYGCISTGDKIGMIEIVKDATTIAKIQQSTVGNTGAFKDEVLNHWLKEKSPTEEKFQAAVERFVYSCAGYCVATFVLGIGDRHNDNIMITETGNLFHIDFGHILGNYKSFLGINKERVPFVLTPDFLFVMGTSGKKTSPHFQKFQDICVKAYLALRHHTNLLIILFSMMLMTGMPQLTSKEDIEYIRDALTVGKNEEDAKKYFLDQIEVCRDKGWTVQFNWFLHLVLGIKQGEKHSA

| Molecule | IC50 [1] | IC50 [2] |
| --- | --- | --- |
| C[C@@H]1CN(C(=O)c2ccc(NC(=O)Nc3ccc(-c4nc(N5CCOCC5)nc(N5CCOCC5)n4)cc3)cc2)CCN1 [Example 849, 1-{4-[4,6-di(morpholin-4-yl)-1,3,5-triazin-2-yl]phenyl}-3-(4-{[(3R)-3-methylpiperazin-1-yl]carbonyl}phenyl)urea] | 3.17 nM | 0.3 nM |
| CC(C)N1CCCN(c2nc(-c3ccc(NC(=O)Nc4ccc(C(=O)N5CCN(C)CC5)cc4)cc3)nc(N3CCOC[C@@H]3C)n2)CC1 [Example 855, 1-(4-{4-[(3S)-3-methylmorpholin-4-yl]-6-[4-(propan-2-yl)-1,4-diazepan-1-yl]-1,3,5-triazin-2-yl}phenyl)-3-{4-[(4-methylpiperazin-1-yl)carbonyl]phenyl}urea] | 864 nM | 54 nM |
| CN1CCN(C(=O)c2ccc(NC(=O)Nc3ccc(-c4nc(N5CCOCC5)nc(N5CCOCC5)n4)cc3)cc2)CC1(C)C [Example 848, 1-{4-[4,6-di(morpholin-4-yl)-1,3,5-triazin-2-yl]phenyl}-3-{4-[(3,3,4-trimethylpiperazin-1-yl)carbonyl]phenyl}urea] | 6 nM | 1.05 nM |
| C[C@H]1COCCN1c1nc(-c2ccc(NC(=O)Nc3ccc(C(=O)N4C5CCC4COC5)cc3)cc2)nc(N2CCOC[C@@H]2C)n1 [Example 839, 1-(4-{4,6-bis[(3S)-3-methylmorpholin-4-yl]-1,3,5-triazin-2-yl}phenyl)-3-[4-(3-oxa-8-azabicyclo[3.2.1]oct-8-ylcarbonyl)phenyl]urea] | 29 nM | 6.65 nM |
| CC(C)N1CCCN(c2nc(-c3ccc(NC(=O)Nc4ccc(C(=O)N5CC[C@@H](N(C)C)C5)cc4)cc3)nc(N3CCOCC3)n2)CC1 [Example 847, 1-(4-{[(3R)-3-(dimethylamino)pyrrolidin-1-yl]carbonyl}phenyl)-3-(4-{4-(morpholin-4-yl)-6-[4-(propan-2-yl)-1,4-diazepan-1-yl]-1,3,5-triazin-2-yl}phenyl)urea] | 87.5 nM | 10.5 nM |
| C[C@@H]1CN(C(=O)c2ccc(NC(=O)Nc3ccc(-c4nc(N5CCOCC5)nc(N5CCOCC5)n4)cc3)cc2)CCN1C [Example 850, 1-(4-{[(3R)-3,4-dimethylpiperazin-1-yl]carbonyl}phenyl)-3-{4-[4,6-di(morpholin-4-yl)-1,3,5-triazin-2-yl]phenyl}urea] | 6.1 nM | 0.65 nM |
| CN(C)CCN(C)C(=O)c1ccc(NC(=O)Nc2ccc(-c3nc(C4CCOCC4)nc(N4CCOCC4)n3)cc2)cc1 [Example 834, N-[2-(dimethylamino)ethyl]-N-methyl-4-[({4-[4-morpholin-4-yl-6-(tetrahydro-2H-pyran-4-yl)-1,3,5-triazin-2-yl]phenyl}carbamoyl)amino]benzamide] | 10 nM | 0.75 nM |
| CC(C)N1CCN(C(=O)c2ccc(NC(=O)Nc3ccc(-c4nc(C5CCOCC5)nc(N5CCOCC5)n4)cc3)cc2)CC1 [Example 833, 1-(4-{[4-(1-methylethyl)piperazin-1-yl]carbonyl}phenyl)-3-{4-[4-morpholin-4-yl-6-(tetrahydro-2H-pyran-4-yl)-1,3,5-triazin-2-yl]phenyl}urea] | 8.25 nM | 2.58 nM |
| 1-[4-(4,6-dimorpholin-4-yl-1,3,5-triazin-2-yl)phenyl]-3-[3-(1-hydroxyethyl)phenyl]urea [Example 88] | 74 nM | 8 nM |
| CC(C)N1CCCN(c2nc(-c3ccc(NC(=O)Nc4ccc(C(=O)N5CC[C@H](N(C)C)C5)cc4)cc3)nc(N3CCOC[C@@H]3C)n2)CC1 [Example 856, 1-(4-{[(3S)-3-(dimethylamino)pyrrolidin-1-yl]carbonyl}phenyl)-3-(4-{4-[(3S)-3-methylmorpholin-4-yl]-6-[4-(propan-2-yl)-1,4-diazepan-1-yl]-1,3,5-triazin-2-yl}phenyl)urea] | 532 nM | 28.5 nM |
| C[C@H]1COCCN1c1nc(-c2ccc(NC(=O)Nc3ccc(C(=O)N4CC[C@@H](N(C)C)C4)cc3)cc2)nc(N2CCOC[C@@H]2C)n1 [Example 842, 1-(4-{4,6-bis[(3S)-3-methylmorpholin-4-yl]-1,3,5-triazin-2-yl}phenyl)-3-(4-{[(3R)-3-(dimethylamino)pyrrolidin-1-yl]carbonyl}phenyl)urea] | 54.5 nM | 3.55 nM |
| O=C(Nc1ccc(-c2nc(N3CCOCC3)nc(N3CCOCC3)n2)cc1)Nc1ccc(C(O)(C(F)(F)F)C(F)(F)F)cc1 [Example 86, 1-[4-(4,6-dimorpholin-4-yl-1,3,5-triazin-2-yl)phenyl]-3-{4-[2,2,2-trifluoro-1-hydroxy-1-(trifluoromethyl)ethyl]phenyl}urea] | 444 nM | 122 nM |
| CC1CNCCN1C(=O)c1ccc(NC(=O)Nc2ccc(-c3nc(N4CCOCC4)nc(N4CCOCC4)n3)cc2)cc1 (centres unmarked) [Example 845, 1-{4-[4,6-di(morpholin-4-yl)-1,3,5-triazin-2-yl]phenyl}-3-{4-[(2-methylpiperazin-1-yl)carbonyl]phenyl}urea] | 2.75 nM | 0.25 nM |
| CC(C)N1CCCN(c2nc(-c3ccc(NC(=O)Nc4ccc(C(=O)N5CC[C@@H](N(C)C)C5)cc4)cc3)nc(N3CCOCC3)n2)CC1 [Example 844, 1-(4-{[(3R)-3-(dimethylamino)pyrrolidin-1-yl]carbonyl}phenyl)-3-(4-{4-(morpholin-4-yl)-6-[4-(propan-2-yl)-1,4-diazepan-1-yl]-1,3,5-triazin-2-yl}phenyl)urea] | 238 nM | 21 nM |
| CCN(CC)CCOC(=O)c1ccc(NC(=O)Nc2ccc(-c3nc(N4CCOCC4)nc(N4C5CCC4COC5)n3)cc2)cc1 [Example 675, 2-(diethylamino)ethyl 4-[({4-[4-morpholin-4-yl-6-(3-oxa-8-azabicyclo[3.2.1]oct-8-yl)-1,3,5-triazin-2-yl]phenyl}carbamoyl)amino]benzoate] | 136 nM | 21 nM |
| CC(C)N1CCCN(c2nc(-c3ccc(NC(=O)Nc4ccc(C(=O)N5CCNCC5)cc4)cc3)nc(N3CCOCC3)n2)CC1 [Example 846, 1-(4-{4-(morpholin-4-yl)-6-[4-(propan-2-yl)-1,4-diazepan-1-yl]-1,3,5-triazin-2-yl}phenyl)-3-[4-(piperazin-1-ylcarbonyl)phenyl]urea] | 22.5 nM | 3.5 nM |
| CC(C)N1CCCN(c2nc(-c3ccc(NC(=O)Nc4ccc(C(=O)N5CC[C@H](N(C)C)C5)cc4)cc3)nc(N3CCOCC3)n2)CC1 [Example 843, 1-(4-{[(3S)-3-(dimethylamino)pyrrolidin-1-yl]carbonyl}phenyl)-3-(4-{4-(morpholin-4-yl)-6-[4-(propan-2-yl)-1,4-diazepan-1-yl]-1,3,5-triazin-2-yl}phenyl)urea] | 291 nM | 28.5 nM |

The next lines start with the values.

| IC50 [1] | IC50 [2] | Molecule |
| --- | --- | --- |
| 7.5 nM | 1 nM | C[C@H]1CN(C(=O)c2ccc(NC(=O)Nc3ccc(-c4nc(N5CCOCC5)nc(N5CCOCC5)n4)cc3)cc2)CCN1C [Example 864, 1-(4-{[(3S)-3,4-dimethylpiperazin-1-yl]carbonyl}phenyl)-3-{4-[4,6-di(morpholin-4-yl)-1,3,5-triazin-2-yl]phenyl}urea] |
| 434 nM | 57 nM | COCCNC(=O)c1ccc(NC(=O)Nc2ccc(-c3nc(N4CCOCC4)nc(N4CCCN(C(C)C)CC4)n3)cc2)cc1 [Example 860, N-(2-methoxyethyl)-4-{[(4-{4-(morpholin-4-yl)-6-[4-(propan-2-yl)-1,4-diazepan-1-yl]-1,3,5-triazin-2-yl}phenyl)carbamoyl]amino}benzamide] |
| 56 nM | 4 nM | CC(C)N1CCCN(c2nc(-c3ccc(NC(=O)Nc4ccc(C(=O)N5CCCNCC5)cc4)cc3)nc(N3CCOCC3)n2)CC1 [Example 861, 1-[4-(1,4-diazepan-1-ylcarbonyl)phenyl]-3-(4-{4-(morpholin-4-yl)-6-[4-(propan-2-yl)-1,4-diazepan-1-yl]-1,3,5-triazin-2-yl}phenyl)urea] |
| 154 nM | 23.5 nM | CC(C)N1CCCN(C(=O)c2ccc(NC(=O)Nc3ccc(-c4nc(N5CCOCC5)nc(N5CCCN(C(C)C)CC5)n4)cc3)cc2)CC1 [Example 862, 1-(4-{4-(morpholin-4-yl)-6-[4-(propan-2-yl)-1,4-diazepan-1-yl]-1,3,5-triazin-2-yl}phenyl)-3-(4-{[4-(propan-2-yl)-1,4-diazepan-1-yl]carbonyl}phenyl)urea] |
| 6.5 nM | 0.6 nM | CN(C)[C@H]1CCN(C(=O)c2ccc(NC(=O)Nc3ccc(-c4nc(C5CCOCC5)nc(N5CCOCC5)n4)cc3)cc2)C1 [Example 869, 1-(4-{[(3S)-3-(dimethylamino)pyrrolidin-1-yl]carbonyl}phenyl)-3-{4-[4-morpholin-4-yl-6-(tetrahydro-2H-pyran-4-yl)-1,3,5-triazin-2-yl]phenyl}urea] |
| 146 nM | 10 nM | CC(C)N1CCCN(c2nc(-c3ccc(NC(=O)Nc4ccc(C(=O)NCCCN(C)C)cc4)cc3)nc(N3CCOCC3)n2)CC1 [Example 857, N-[3-(dimethylamino)propyl]-4-{[(4-{4-(morpholin-4-yl)-6-[4-(propan-2-yl)-1,4-diazepan-1-yl]-1,3,5-triazin-2-yl}phenyl)carbamoyl]amino}benzamide] |
| 16.5 nM | 1.6 nM | C[C@H]1CN(C(=O)c2ccc(NC(=O)Nc3ccc(-c4nc(C5CCOCC5)nc(N5CCOCC5)n4)cc3)cc2)CCN1C [Example 866, 1-(4-{[(3S)-3,4-dimethylpiperazin-1-yl]carbonyl}phenyl)-3-{4-[4-(morpholin-4-yl)-6-(tetrahydro-2H-pyran-4-yl)-1,3,5-triazin-2-yl]phenyl}urea] |
| 4.5 nM | 0.65 nM | CN(C)[C@@H]1CCN(C(=O)c2ccc(NC(=O)Nc3ccc(-c4nc(C5CCOCC5)nc(N5CCOCC5)n4)cc3)cc2)C1 [Example 868, 1-(4-{[(3R)-3-(dimethylamino)pyrrolidin-1-yl]carbonyl}phenyl)-3-{4-[4-morpholin-4-yl-6-(tetrahydro-2H-pyran-4-yl)-1,3,5-triazin-2-yl]phenyl}urea] |

From patent US8748421B2, “Triazine compounds as P13 kinase and MTOR inhibitors” (Wyeth LLC, priority 2009, dated 2014)
